Experimental data reported in ChEMBL document CHEMBL1201862, “PubChem BioAssay data set” (2004).
Activity calls are given as the source filed them.

Columns and labels:
Staphylococcus aureus = assay: Inhibitors of Bacterial Quorum Sensing Structure Activity Relationship (SAR) Analysis: Dose Response Assay. [Related pubchem assays: 700, 527 ]; format: functional, organism-based
[1] = biological target: T1, Neuropeptide Y receptor type 2 (Homo sapiens, UniProt P49146); assay: Fluorescence counterscreen for potentiators or agonists of NPY-Y1: Cell-based high-throughput dose response assay for potentiators or agonists of NPY-Y2.; format: functional
T1 sequence (P49146 whole entry): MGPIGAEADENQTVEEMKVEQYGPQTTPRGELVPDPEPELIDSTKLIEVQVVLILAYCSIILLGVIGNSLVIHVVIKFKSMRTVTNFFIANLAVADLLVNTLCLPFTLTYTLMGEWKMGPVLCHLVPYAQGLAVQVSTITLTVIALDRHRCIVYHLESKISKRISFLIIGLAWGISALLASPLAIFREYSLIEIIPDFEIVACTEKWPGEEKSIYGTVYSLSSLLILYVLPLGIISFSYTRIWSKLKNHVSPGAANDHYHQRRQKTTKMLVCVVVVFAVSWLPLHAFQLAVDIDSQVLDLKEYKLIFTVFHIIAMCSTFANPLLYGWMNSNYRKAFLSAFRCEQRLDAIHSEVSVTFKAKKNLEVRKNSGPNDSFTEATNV

[2] = biological target: T1, Neuropeptide Y receptor type 2; assay: Fluorescence-based counterscreen for agonists of NPY-Y1: cell-based high-throughput dose response assay for agonists of NPY-Y2.; format: functional
[3] = biological target: T2, Rac GTPase-activating protein 1 (Homo sapiens, UniProt Q9H0H5); assay: MgcRacGAP GTPase-activating activity inhibitors, confirmation, biochemical, ADP Hunter fluorescence, primary and confirmatory (AID 624330); format: functional
T2 sequence (Q9H0H5 whole entry): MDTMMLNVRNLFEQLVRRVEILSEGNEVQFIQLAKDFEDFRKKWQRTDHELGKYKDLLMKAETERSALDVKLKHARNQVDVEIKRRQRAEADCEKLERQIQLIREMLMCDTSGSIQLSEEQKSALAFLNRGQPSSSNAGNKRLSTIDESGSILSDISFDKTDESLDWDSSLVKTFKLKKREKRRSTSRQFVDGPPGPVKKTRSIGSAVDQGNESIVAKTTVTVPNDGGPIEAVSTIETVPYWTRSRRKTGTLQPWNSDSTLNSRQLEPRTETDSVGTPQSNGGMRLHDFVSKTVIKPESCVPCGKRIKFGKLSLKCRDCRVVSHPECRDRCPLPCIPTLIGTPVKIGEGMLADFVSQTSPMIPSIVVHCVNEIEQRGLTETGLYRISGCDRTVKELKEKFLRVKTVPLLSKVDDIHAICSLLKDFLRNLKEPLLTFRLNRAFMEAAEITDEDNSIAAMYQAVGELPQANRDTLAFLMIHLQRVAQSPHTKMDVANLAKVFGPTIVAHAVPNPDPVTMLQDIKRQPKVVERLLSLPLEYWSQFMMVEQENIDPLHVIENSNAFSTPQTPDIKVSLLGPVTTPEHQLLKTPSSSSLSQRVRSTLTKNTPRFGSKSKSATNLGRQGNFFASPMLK

[4] = biological target: T3, Neuropeptide Y receptor type 1 (Homo sapiens, UniProt P25929); assay: Fluorescence-based dose response cell-based high-throughput screening assay for agonists of NPY-Y1. [Related pubchem assays: 1697 (Screening assay (NPY-Y1 agonists).), 1359 (Screening assay (NPY-Y2 potentiators or agonists).), 1304 (Screening assay (NPY-Y1 potentiators or agonists).), 1704 (Screening assay (CNGC inhibitors).), 1791 (Summary AID.)]; format: functional
T3 sequence (P25929 whole entry): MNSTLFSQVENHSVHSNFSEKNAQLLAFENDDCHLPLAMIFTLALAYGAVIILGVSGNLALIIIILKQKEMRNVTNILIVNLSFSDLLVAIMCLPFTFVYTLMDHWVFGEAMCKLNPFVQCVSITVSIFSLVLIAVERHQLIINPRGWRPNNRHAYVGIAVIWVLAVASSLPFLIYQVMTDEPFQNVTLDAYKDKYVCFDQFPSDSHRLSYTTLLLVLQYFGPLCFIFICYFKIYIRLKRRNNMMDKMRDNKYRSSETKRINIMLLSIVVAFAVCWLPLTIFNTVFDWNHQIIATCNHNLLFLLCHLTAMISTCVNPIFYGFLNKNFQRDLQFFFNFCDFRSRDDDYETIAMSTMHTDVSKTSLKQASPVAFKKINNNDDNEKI

[5] = biological target: T3, Neuropeptide Y receptor type 1; assay: Fluorescence-based dose response cell-based high-throughput screening assay for potentiators or agonists of NPY-Y1.; format: functional
HEK293 = assay: Fluorescence-based counterscreen for potentiators or agonists of NPY-Y1: cell-based high-throughput dose response assay for inhibitors of cyclic nucleotide gated ion channel (CNGC) activity. In this assay, the parental HEK293 cell line transfected with a cyclic-nucleotide gated ion channel (CNGC)-based cAMP sensor is used to measure inhibition of isoproterenol-induced CNGC …; format: functional; details: Homo sapiens
[6] = biological target: T4, Heat shock factor protein 1 (Mus musculus, UniProt P38532); assay: HSF1 potentiators in luciferase reporter cells, confirmation, cell-based, NIH3T3, luminescence, dose retest (AID 435004); format: functional;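 note: stress induced by proteasome inhibitor MG132 added 30 min after compound; luciferase reporter driven by HSF1 response element in NIH3T3 cells; actives raise luminescence as potentiators of the MG132 stress response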
T4 sequence (P38532 whole entry): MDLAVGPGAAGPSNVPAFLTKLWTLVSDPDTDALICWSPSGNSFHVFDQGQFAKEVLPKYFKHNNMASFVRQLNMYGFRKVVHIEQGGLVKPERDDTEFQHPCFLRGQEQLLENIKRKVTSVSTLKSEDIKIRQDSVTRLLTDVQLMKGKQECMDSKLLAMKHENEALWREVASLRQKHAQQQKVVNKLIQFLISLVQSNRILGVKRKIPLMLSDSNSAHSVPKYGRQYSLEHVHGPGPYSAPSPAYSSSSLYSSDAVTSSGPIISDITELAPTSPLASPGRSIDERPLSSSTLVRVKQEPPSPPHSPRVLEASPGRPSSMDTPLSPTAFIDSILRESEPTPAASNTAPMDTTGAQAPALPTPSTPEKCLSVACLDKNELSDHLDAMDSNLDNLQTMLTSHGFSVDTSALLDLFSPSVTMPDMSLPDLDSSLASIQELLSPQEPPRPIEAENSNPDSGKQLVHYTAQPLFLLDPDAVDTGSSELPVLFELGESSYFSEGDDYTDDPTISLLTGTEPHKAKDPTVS

[7] = biological target: T5, RNA-binding protein pos-1 (Caenorhabditis elegans, UniProt G5EF15); assay: inhibitors of POS-1/mex-3 RNA binding, dose response, biochemical, fluorescence polarization (AID 1964);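 note: purified POS-1 fused to maltose binding protein made in E. coli; potency of compounds blocking POS-1 binding to fluorescent RNA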
T5 sequence (G5EF15 whole entry): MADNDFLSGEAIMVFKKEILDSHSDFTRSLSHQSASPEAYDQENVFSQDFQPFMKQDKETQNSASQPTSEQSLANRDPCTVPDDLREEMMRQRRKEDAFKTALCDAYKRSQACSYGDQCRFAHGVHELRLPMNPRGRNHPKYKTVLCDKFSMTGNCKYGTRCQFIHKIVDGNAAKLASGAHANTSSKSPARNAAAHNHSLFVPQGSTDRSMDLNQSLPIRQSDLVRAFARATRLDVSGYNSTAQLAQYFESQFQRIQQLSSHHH

[8] = biological target: T6, Zinc finger protein mex-5 (Caenorhabditis elegans, UniProt Q9XUB2); assay: MEX-5/TCR-2 RNA interaction inhibitors, dose response, biochemical, C. elegans, fluorescence polarization (AID 1960)
T6 sequence (Q9XUB2 whole entry): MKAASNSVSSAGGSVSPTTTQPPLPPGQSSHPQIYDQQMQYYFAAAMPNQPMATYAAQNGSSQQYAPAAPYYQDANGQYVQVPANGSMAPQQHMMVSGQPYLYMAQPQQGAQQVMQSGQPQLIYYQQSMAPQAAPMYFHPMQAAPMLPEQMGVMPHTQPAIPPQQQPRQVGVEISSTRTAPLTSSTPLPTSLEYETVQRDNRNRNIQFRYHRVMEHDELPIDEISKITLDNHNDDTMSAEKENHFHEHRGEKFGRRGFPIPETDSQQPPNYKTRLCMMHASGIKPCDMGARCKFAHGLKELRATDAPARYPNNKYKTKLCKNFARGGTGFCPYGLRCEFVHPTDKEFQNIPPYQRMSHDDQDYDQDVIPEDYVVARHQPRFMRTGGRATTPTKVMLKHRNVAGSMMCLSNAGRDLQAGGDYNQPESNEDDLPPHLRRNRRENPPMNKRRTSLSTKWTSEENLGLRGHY

cells = format: functional
[9] = THP-1 cell cytotoxicity, dose response, cytotoxicity control for non-replicating M. tuberculosis project (AID 489025); format: functional
Vero = assay: cells; format: functional; details: Chlorocebus sabaeus
NS3 = NS3 (Hepatitis C virus, UniProt A3EZJ3); assay: PubChem AID 2173; parameters: species or system Hepacivirus hominis
Sequence of NS3 (A3EZJ3 whole entry): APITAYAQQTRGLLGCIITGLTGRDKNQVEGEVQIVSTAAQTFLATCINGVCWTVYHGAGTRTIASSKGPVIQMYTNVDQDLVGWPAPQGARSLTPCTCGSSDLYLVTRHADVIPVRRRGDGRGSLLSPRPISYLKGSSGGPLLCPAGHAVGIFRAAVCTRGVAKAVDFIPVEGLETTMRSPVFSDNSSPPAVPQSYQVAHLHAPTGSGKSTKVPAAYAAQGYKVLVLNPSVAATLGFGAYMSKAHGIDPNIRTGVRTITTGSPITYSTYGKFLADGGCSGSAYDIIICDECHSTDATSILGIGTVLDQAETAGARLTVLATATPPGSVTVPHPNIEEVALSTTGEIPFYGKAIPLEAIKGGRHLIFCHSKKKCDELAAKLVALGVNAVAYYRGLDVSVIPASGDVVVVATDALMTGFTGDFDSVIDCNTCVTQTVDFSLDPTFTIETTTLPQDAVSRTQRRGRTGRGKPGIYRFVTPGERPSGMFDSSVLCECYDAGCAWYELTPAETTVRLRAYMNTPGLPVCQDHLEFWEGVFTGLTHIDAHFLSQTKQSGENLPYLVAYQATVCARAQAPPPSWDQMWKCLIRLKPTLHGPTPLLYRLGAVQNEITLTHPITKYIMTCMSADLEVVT

Q: For `CC1CCN(C(C(=O)Nc2ccc(C(C)C)cc2)c2ccc3c(c2)OCO3)CC1` (centres undefined), which IC50 (Staphylococcus aureus) is on record?
A: The IC50 was 0.717 µM (active).

Q: Which results are given for `CCOC(=O)C(Cc1ccccc1)C(=O)Nc1ccc(N(CC)CC)cc1` (centres undefined)?
A: EC50 [1]: 23.9 µM (not active); EC50 [2]: 12.4 µM (not active); IC50 [3]: 93.1 µM (active); EC50 [4]: 7.05 µM (active); EC50 [5]: 5.4 µM (active); IC50 (HEK293): 18.4 µM (not active)

Q: Which results are given for `COc1ccc(N2C(=O)NC(=O)/C(=C/c3ccc([N+](=O)[O-])s3)C2=O)cc1`?
A: EC50 [6]: 8.55 µM (active); EC50 [7]: > 300 µM (not active); EC50 [8]: 24.3 µM (active); IC50 (cells): 26.7 µM (active); CC50 [9]: 38.5 µM (active); CC50 (Vero): > 25 µM (active); IC50 (NS3): 9.42 µM (active)
